The test system of assay [1] is WEHI-3B tumor cells. The assay is described as follows: 3H-thymidine incorporation assay. The note with it: Mus musculus, WEHI3B; for viability at 6.25 µM / viability at 12.5 µM / viability at 25 µM / viability at 50 µM: percent [3H]thymidine uptake, WEHI-3B, read-out: Cell Viability (% of Control); for viability at 12.5 µM: 12.50 μM. The format is cell-based. The method, then:
(§1) Experiments were performed using a number of different rumor cell lines. Tumor cells were cultured in RPMI-1640 medium supplemented with 10% fetal bovine serum, penicillin (50 units/mL), streptomycin (50 μg/mL) and mercaptoethanol (5 μg/mL) in an atmosphere of 5% CO2. The cells were passaged weekly by serial 1/10 to 1/10,000 dilutions. The cell viability and growth were constantly monitored by staining with trypan blue exclusion dye or the incorporation of tritiated thymidine.
(§2) Inhibition of ^3 H-thymidine incorporation into the DNA of cells by a test compound is an indirect measurement of cell kill or growth inhibition, and reflects the anti-cancer activity of the compound.
Tumor cells (2×104 ^4 cells/well) were placed in 200 μL of medium in 96-well plastic microtiter plates; a further 5 μL of medium either with or without phosphonate was added. […] The cells were then harvested using a Brandel cell harvester (model M-12) and collected on Whatman glass microfilters. The radioactivity associated with the filters was quantified in a liquid scintillation counter, and the amount of ^3 H-thymidine incorporated into tumor cells treated with the phosphonate compound was calculated as a percentage of the amount of ^3 H-thymidine incorporated into untreated tumor cells.
The biological activities of 4-hexadecylthio-3(S ) -3-methoxybutane-l-phosponocholine and its enantiomer 4-hexadecylthio-3(R)-3-methoxybutane-1-phosphonocholine were studied on several cancer cell lines. […] The cell viability, was determined as percent[^3 H]thymidine uptake into the cell DNA. The following results are mean of five samples ± S.D.
(In general: Dividing cells build labelled thymidine or BrdU into new DNA.)

Assay [2] concerns WEHI-3B tumor cells. Briefly: colonogenic cell survival assay. The format is cell-based. The note with it: Mus musculus, WEHI3B, 120 h, methyl cellulose medium, five days, read-out: WEHI-3B Colonies Formed (Percentage of Control). On the procedure:
Inhibition of colony formation in soft agar medium (colonogenic cell survival assay) is a more rigorous and direct measurement of cell kill or growth inhibition, and reflects the anti-cancer activity of the test compound. Briefly, tumor cells were cultured in petri dishes in methylcellulose, with or without a phosphonate test compound, and the number of colonies formed during a 5-day incubation period were counted.
Table 17 tabulates data obtained with two differrent phosphonate analogs using a colonogenic assay. Colonogenic assay is one of the most trusted tests for determination of effectiveness of an anti-cancer agent. The test is based on the formation of tumor colonies in vitro in a methyl cellulose or soft agar medium. The following results were obtained with the formation of colonies in methyl cellulose medium after five days in the presence or absence of four phosphonate analogs, two with a thioalkyl chain and two with an alkyloxy chain.

The test system of another assay is B-16/F10 melanoma cells. The assay is described as follows: B-16/F10 melanoma metastasis in C57BL/6 mice. The format is in vivo. Particulars: 10 mg/kg IV (day 0, 4 and 8). The method, then:
Highly metastatic B-16/F10 melanoma cells were injected into the tail veins of female C57BL/6 mice (1×10^5 cells per mouse). Treatment of one group of mice with the phosphonate compound of the above formula (compound VIII), dissolved into 0.5mL ethanol, 0.5 mL cremaphor and 9.0 mL phosphate buffered saline, began three days after the tumor cells were injected. lntramuscular injections of 0.2 mL of the phosphonate emulsion (10 mg/kg/day) were given for 5 days per week for 2 weeks. A second group of mice were treated with Adriamycin (10 mg/kg given intravenously on days 0, 4 and 8) as a known anti-cancer drug control group, while a third group of mice received the vehicle emulsion alone. The mice were examined every day for general health, behaviour and body weight. Counts of metastatic melanomic tumor colonies found in the lungs, general observations of metastasis to distant organs and examination of organs (liver, kidneys, lungs and spleen) were taken at autopsy 4 weeks after treatment.

The test system of the next assay is HL-60 tumor cells. The assay is described as follows: 3H-thymidine incorporation assay. Particulars: Homo sapiens, HL-60 cells, read-out: Thymidine uptake (% of control). The format is cell-based. The method, then: as §1, §2
Tumor cells (2×104 ^4 cells/well) were placed in 200 μL of medium in 96-well plastic microtiter plates; a further 5 μL of medium either with or without phosphonate was added. After incubation for 24, 48 or 72 hours at 37° C. in a humidified atmosphere containing 5% CO2, the wells were pulsed with 0.1 μCi of ^3 H-thymidine for an additional 24 hours. The cells were then harvested using a Brandel cell harvester (model M-12) and collected on Whatman glass microfilters. The radioactivity associated with the filters was quantified in a liquid scintillation counter, and the amount of ^3 H-thymidine incorporated into tumor cells treated with the phosphonate compound was calculated as a percentage of the amount of ^3 H-thymidine incorporated into untreated tumor cells.

Where [3] appears, read: 24 hours, read-out: Thymidine uptake (% of control).
Where [4] appears, read: 48 hours, WEHI-3B cells, read-out: Thymidine uptake (% of control).
Where [5] appears, read: Table 3: 48 hours in title (text: 72 hours), WEHI-3B cells, read-out: Thymidine uptake (% of control).
The mark [6] stands for this setting: Table 3: 48 hours in title (text: 72 hours).

Read-outs that look alike come from different tables or passages of the source.

A word on the viability: it is the share of living cells, or the viability signal relative to a control. Regarding `CCCCCCCCCCCCCCCCSC[C@H](CCP(=O)([O-])OCC[N+](C)(C)C)OC` [Compound 1, 4hexadecylthio-3-O-methyl-3(S)-butane-phosphonocholine], in the assay with WEHI-3B tumor cells [1], the viability at 6.25 µM stood at 55 ± 0.5%, the viability at 12.5 µM was found to be 31 ± 3.4%, the viability at 25 µM worked out at 21 ± 0.2% and the viability at 50 µM was 2 ± 1.4%. For the same molecule, in the assay with WEHI-3B tumor cells [2], the activity at 0.6 µM turned out to be 88%, the activity at 1.25 µM turned out to be 95%, the activity at 2.5 µM stood at 55% and the activity at 5 µM came to 52%. In the assay with WEHI-3B tumor cells [2], the activity at 10 µM was found to be 22% and the activity at 20 µM was found to be 9%.

On to `CCCCCCCCCCCCCCCCSC[C@@H](CCP(=O)([O-])OCC[N+](C)(C)C)OC` [Compound 2, 4hexadecylthio-3-O-methyl-3(R)-butane-phosphonocholine], for which, in the assay with WEHI-3B tumor cells [1], the viability at 6.25 µM was 61 ± 0.4%, the viability at 12.5 µM was determined as 24 ± 2.7%, the viability at 25 µM is 22 ± 4.6% and the viability at 50 µM was 12 ± 1.2%. Further, in the assay with WEHI-3B tumor cells [2], the activity at 0.6 µM was 54%, the activity at 1.25 µM came out at 44%, the activity at 2.5 µM amounted to 36% and the activity at 5 µM came out at 21%. Besides, in the assay on WEHI-3B tumor cells [2], the activity at 10 µM stood at 5% and the activity at 20 µM is 0%.

Turning to `COc1cccc2c1C(=O)c1c(O)c3c(c(O)c1C2=O)C[C@@](O)(C(=O)CO)C[C@@H]3O[C@H]1C[C@H](N)[C@H](O)[C@H](C)O1` [Adriamycin, reference compound], the “melanomic tumor colonies in the lungs (in words)” value in the assay on B-16/F10 melanoma cells is “none of the Adriamycin-treated mice developed melanomic tumor colonies in their lungs”. Further, the “Melanomic tumor colonies found in the lungs at autopsy” value in the assay with B-16/F10 melanoma cells (Mouse 1), in the assay on B-16/F10 melanoma cells (Mouse 2), in the assay on B-16/F10 melanoma cells (Mouse 3), in the assay on B-16/F10 melanoma cells (Mouse 4), in the assay with B-16/F10 melanoma cells (Mouse 5) and in the assay with B-16/F10 melanoma cells (Mouse 6) was 0 throughout.

Take `CCCCCCCCCCCCCCCCCCOCC(CP(=O)([O-])OCC[N+](C)(C)C)OC` (stereo not shown) [compound V]: in the assay on WEHI-3B tumor cells [1] (setting [3]), the activity at 0.62 µM turned out to be 137 ± 6%, the activity at 1.25 µM was 93 ± 7%, the activity at 2.5 µM was 91 ± 4% and the activity at 5 µM turned out to be 88 ± 11%. Besides, in the assay with WEHI-3B tumor cells [1] (setting [3]), the activity at 10 µM worked out at 76 ± 6% and the activity at 20 µM worked out at 48 ± 4%. For the same molecule, in the assay with WEHI-3B tumor cells [1] (setting [4]), the activity at 0.62 µM came to 93 ± 6%, the activity at 1.25 µM was 90 ± 5%, the activity at 2.5 µM was 86 ± 8% and the activity at 5 µM is 61 ± 6%. In the assay on WEHI-3B tumor cells [1] (setting [4]), the activity at 10 µM turned out to be 23 ± 2% and the activity at 20 µM amounted to 18 ± 8%. For the same molecule, in the assay on WEHI-3B tumor cells [1] (setting [5]), the activity at 0.62 µM turned out to be 85 ± 3%, the activity at 1.25 µM stood at 86 ± 4%, the activity at 2.5 µM turned out to be 82 ± 6% and the activity at 5 µM amounted to 60 ± 4%. Besides, in the assay with WEHI-3B tumor cells [1] (setting [5]), the activity at 10 µM amounted to 26 ± 3% and the activity at 20 µM came to 10 ± 3%. In addition, the activity at 40 µM in the assay on WEHI-3B tumor cells [1] (40 μM, 24 hours, read-out: Thymidine uptake (% of control)) is 43 ± 15%. Moreover, in the assay with HL-60 tumor cells (48 hours), the activity at 0.62 µM amounted to 84 ± 5%, the activity at 1.25 µM was determined as 76 ± 4%, the activity at 2.5 µM was found to be 63 ± 4% and the activity at 5 µM worked out at 24 ± 3%. Further, in the assay with HL-60 tumor cells (48 hours), the activity at 10 µM was determined as 3 ± 2% and the activity at 20 µM was 1%. Moreover, in the assay on HL-60 tumor cells (setting [6]), the activity at 0.62 µM came to 93 ± 4%, the activity at 1.25 µM was 81 ± 4%, the activity at 2.5 µM turned out to be 66 ± 3% and the activity at 5 µM was determined as 16 ± 4%. In the assay on HL-60 tumor cells (setting [6]), the activity at 10 µM is 5 ± 1% and the activity at 20 µM came out at 1 ± 0.9%.
